Measured values reported in paper PMC6515314 (Molecules, 2019).
Starred links: 1 amine or outer side, 2 acyl side, 3 side chain; linkers in the order of their positions; H or OH if unused. Non-standard residues stand in square brackets, D forms with d. Residues, ends and D or L forms follow the SMILES beside them. X1 = O=C([C@H](Cc1cncn1CCCCc1cn(Cc2c(F)cccc2Oc2ccccc2)nn1)N[*:1])[*:2]; X3 = O=C([C@H](Cc1cncn1CCCCc1cn(Cc2ccc(F)c(Cl)c2)nn1)N[*:1])[*:2]; X4 = O=C([C@H](Cc1cncn1CCCCc1cn(Cc2ccc(F)cc2)nn1)N[*:1])[*:2]; X2 = O=C([C@H](Cc1cncn1CCCCc1cn(Cc2ccccc2)nn1)N[*:1])[*:2]; X5 = C#CCCCCn1cncc1C[C@H](N[*:1])C(=O)[*:2]; pT = C[C@@H](OP(=O)(O)O)[C@H](N)C(=O)O; Pra = C#CC[C@H](N)C(=O)O

What was measured:
Format in all cases: binding
[1] = target: T1, Plk1 PBD (Homo sapiens, UniProt P53350); assay: Fluorescence polarization (FP) assay, isolated Plk1 PBD; settings: for IC50: FP assay, average ± SEM
T1 construct: a plasmid encoding myc-tagged Plk1 PBD was purchased from Addgene; host or cells: HEK-293T
Protocol: (§1) Plasmids encoding the myc-tagged PBDs of Plk2 and Plk3 were generous gifts from Prof. […] The supernatant containing expressed protein was diluted into 8 mL of PBS (pH 7.4) containing protease/phosphatase inhibitor cocktail. This protein solution was added to a 1 mL bed of myc-agarose resin (Thermo Scientific, Waltham, MA, USA) and allowed to bind for 2 h at 4 °C with gentle rotation. The lysate was eluted and the resin was washed 4× with 4-(2-hydroxyethyl)-1-piperazineethanesulfonic acid (HEPES) buffered saline (HBS) containing 0.05% Tween-20, 1 mM dithiothreitol (DTT) and 1 mM ethylenediaminetetraacetic acid (EDTA). The bound PBD protein was then eluted with a 1 mg/mL solution of myc peptide ([…]) in HBS + 1 mM DTT and 1 mM EDTA. […] The concentration of the final protein solution was determined by absorbance at 280 nm and purity was determined by SDS-PAGE (sodium dodecyl sulfate-polyacrylamide gel electrophoresis) with Coomassie staining.
As previously reported, isolated PBD protein was diluted to a 2× working dilution in assay buffer (HEPES-buffered saline with 0.05% Tween-20, 1 mM DTT, and 1 mM EDTA). […] Inhibitors were serially diluted to generate 4× working dilutions in assay buffer containing 4% DMSO. 20 μL of 2× PBD solution was added to each well of a 384-well plate (0% binding controls received 20 μL of assay buffer). 10 μL of the 4× inhibitor solution (or DMSO blank) was added to corresponding wells and allowed to pre-incubate at RT for 30 min with shaking. The following sequences were utilized as fluorescent probes: 5CF-GPMQSpTPLNG-NH2 for Plk1 PBD; 5CF-GPMQTSpTPKNG-NH2 for Plk2 PBD and 5CF-PLATSpTPKNG-NH2 for Plk3 PBD [10]. Fluorescent probes were diluted to 40 nM (4×) in assay buffer and then 10 μL was added to each well. The plate was allowed to equilibrate at room temperature for (30 min) with shaking. […] The FP values were obtained in triplicate and normalized to 100% (no inhibitor) and 0% binding (no protein) controls. Normalized values were plotted versus concentration and analyzed using non-linear regression in GraphPad Prism 8 (GraphPad Software, San Diego, CA, USA) [log(inhibitor) vs. response-variable slope (four parameter) model].

[2] = test system: Plk2 PBD; assay: Fluorescence polarization (FP) assay, isolated Plk2 PBD; settings: average ± SEM
Protocol: as §1
(§2) As previously reported, isolated PBD protein was diluted to a 2× working dilution in assay buffer (HEPES-buffered saline with 0.05% Tween-20, 1 mM DTT, and 1 mM EDTA). […] Normalized values were plotted versus concentration and analyzed using non-linear regression in GraphPad Prism 8 (GraphPad Software, San Diego, CA, USA) [log(inhibitor) vs. response-variable slope (four parameter) model].

[3] = target: T2, Plk3 PBD (Homo sapiens, UniProt Q9H4B4); assay: Fluorescence polarization (FP) assay, isolated Plk3 PBD; settings: average ± SEM
T2 sequence (Q9H4B4 418-646 limits assumed): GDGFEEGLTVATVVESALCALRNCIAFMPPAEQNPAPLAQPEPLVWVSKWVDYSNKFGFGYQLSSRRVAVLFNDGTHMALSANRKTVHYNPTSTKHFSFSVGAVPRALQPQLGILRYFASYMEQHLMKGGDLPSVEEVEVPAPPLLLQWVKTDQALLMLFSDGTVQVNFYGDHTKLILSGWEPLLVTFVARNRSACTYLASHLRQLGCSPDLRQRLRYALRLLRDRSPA
Protocol: as §1, §2

[4] = target: T3, full-length Plk1 (Homo sapiens, UniProt P53350); assay: ELISA assay using full-length Plk1
T3 construct: a plasmid encoding myc-tagged full-length Plk1 (Addgene, Plasmid #41160); host or cells: HEK-293T (crude cytosolic lysate, not purified)
T3 sequence (P53350 whole entry): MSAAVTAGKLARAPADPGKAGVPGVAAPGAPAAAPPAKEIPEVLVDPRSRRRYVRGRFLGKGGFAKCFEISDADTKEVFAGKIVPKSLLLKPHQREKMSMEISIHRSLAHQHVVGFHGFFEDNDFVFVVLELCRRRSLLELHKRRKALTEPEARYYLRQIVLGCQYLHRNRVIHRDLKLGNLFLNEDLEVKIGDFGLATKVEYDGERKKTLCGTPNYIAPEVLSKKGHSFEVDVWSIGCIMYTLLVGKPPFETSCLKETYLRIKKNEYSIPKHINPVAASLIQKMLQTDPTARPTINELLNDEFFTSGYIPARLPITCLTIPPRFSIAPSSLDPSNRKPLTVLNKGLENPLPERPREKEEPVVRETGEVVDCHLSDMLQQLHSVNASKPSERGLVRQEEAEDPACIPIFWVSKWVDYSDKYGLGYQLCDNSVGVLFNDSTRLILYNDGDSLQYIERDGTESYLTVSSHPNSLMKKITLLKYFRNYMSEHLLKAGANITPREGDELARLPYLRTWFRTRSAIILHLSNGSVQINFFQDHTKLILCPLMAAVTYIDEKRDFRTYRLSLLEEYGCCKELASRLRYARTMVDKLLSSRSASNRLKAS
Protocol: Following 48 h expression, cells were harvested, lysed in buffer (PBS, pH 7.4 with 0.5% NP-40 and protease/phosphatase inhibitor cocktail) using freeze/thaw cycles (3×) and centrifuged at 10,000× g for 10 min at 4 °C. The supernatant was removed to provide a crude cytosolic lysate containing overexpressed, myc-tagged Plk1 (total protein concentration determined by bicinchoninic acid (BCA) assay).
As previously reported [25, 26, 50] a biotinylated phosphopeptide (sequence: Biotin-Ahx-PMQS(pT)PLN-NH2) was diluted to 1 µM (from a 2 mM DMSO stock solution) in PBS (pH 7.4) and loaded onto the wells of a 96-well Neutravidin-coated plate (Pierce Biotechnology, ThermoFisher Scientific, Waltham, MA, USA) at 100 µL per well for 1 h (background control contained no biotinylated peptide). The wells were washed once with 150 µL PBST (PBS, pH 7.4 + 0.05% Tween-20), and then 100 µL of 1% BSA in PBS (pH 7.4) (blocking buffer) was added for 1 h. A cytosolic lysate-containing transiently expressed myc-tagged Plk1 protein was diluted to 300 µg/mL in PBS (pH 7.4) containing protease/phosphatase inhibitors (Pierce Biotechnology), mixed with competitive inhibitor (from a 10× stock in ~4% DMSO/PBS), and allowed to pre-incubate for 1 h (100 µL per well in a 96-well plate, 30 µg total protein). The blocked ELISA plate was washed 2× with PBST (PBS, pH 7.4 + 0.05% Tween-20) (150 µL) and the pre-incubated lysates were added to the plate and incubated (1 h). […] The wells were then washed 5× with PBST (150 µL) and incubated with Turbo TMB (3,3′,5,5′-tetramethyl benzidine substrate)-ELISA solution (Pierce Biotechnology) until the desired absorbance was reached (5–10 min). The reaction was quenched by the addition of 2 N aqueous H2SO4 and the absorbance was measured at 450 nm using a BioTek Synergy 2 96-well plate reader. Absorbance was plotted versus concentration (logM) and fit to a non-linear regression analysis using GraphPad Prism 8 software [model: log(inhibitor) vs. response-variable slope (four parameters)].

T1 sequence (P53350 326-603 limits assumed): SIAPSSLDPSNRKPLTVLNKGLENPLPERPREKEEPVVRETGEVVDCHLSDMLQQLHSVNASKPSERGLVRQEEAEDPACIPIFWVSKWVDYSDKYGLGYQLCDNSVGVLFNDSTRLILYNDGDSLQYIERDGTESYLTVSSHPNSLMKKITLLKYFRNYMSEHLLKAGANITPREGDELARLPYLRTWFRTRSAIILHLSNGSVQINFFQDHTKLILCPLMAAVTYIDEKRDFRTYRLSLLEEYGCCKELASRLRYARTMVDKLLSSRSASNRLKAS

SMILES: C#CC[C@H](NC(=O)[C@H](CC(C)C)NC(=O)[C@@H]1CCCN1C(C)=O)C(=O)N[C@@H](CO)C(=O)N[C@H](C(N)=O)[C@@H](C)OP(=O)(O)O [Peptide 17] (Ac-PL[Pra]S[pT]-NH2)
- loss of Plk1 PBD-binding affinity compared with parent peptide 1 ([1]; FP): ~2 fold
- IC50 [1]: 1000 ± 140 nM

SMILES: C#CCCCCn1cncc1C[C@H](NC(=O)[C@H](CC(C)C)NC(=O)[C@@H]1CCCN1C(C)=O)C(=O)N[C@@H](CO)C(=O)N[C@H](C(N)=O)[C@@H](C)OP(=O)(O)O [Peptide 13] (Ac-PL[X5]S[pT]-NH2)
- IC50 [1]: 1100 ± 45 nM

SMILES: CC(=O)N1CCC[C@H]1C(=O)N[C@@H](CC(C)C)C(=O)N[C@@H](Cc1cncn1CCCCc1cn(Cc2ccc(F)cc2)nn1)C(=O)N[C@@H](CO)C(=O)N[C@H](C(N)=O)[C@@H](C)OP(=O)(O)O [Peptide 3b] (Ac-PL[X4]S[pT]-NH2)
- IC50 [1]: 100 ± 19 nM

SMILES: CC(=O)N1CCC[C@H]1C(=O)N[C@@H](CC(C)C)C(=O)N[C@@H](Cc1cncn1CCCCc1cn(Cc2c(F)cccc2Oc2ccccc2)nn1)C(=O)N[C@@H](CO)C(=O)N[C@H](C(N)=O)[C@@H](C)OP(=O)(O)O [Peptide 3d] (Ac-PL[X1]S[pT]-NH2)
- IC50 [1]: 25 ± 1.6 nM
- IC50 [2]: 5900 ± 420 nM
- IC50 [3]: 9900 ± 2200 nM
- IC50 ([4]; ELISA, myc-tagged full-length Plk1 lysate, ± SEM, read-out: IC50 (nM) against full-length Plk1): 12000 ± 2100 nM
- Fold-change relative to isolated PBD value ([4]; full-length Plk1 ELISA IC50 vs isolated PBD FP IC50): 480 ×
- potency reduction in the full-length assay relative to the isolated PBD assay ([4]; full-length Plk1 ELISA vs isolated PBD FP): 480 fold

SMILES: CC(=O)N1CCC[C@H]1C(=O)N[C@@H](CC(C)C)C(=O)N[C@@H](Cc1cncn1CCCCc1cn(Cc2ccc(F)c(Cl)c2)nn1)C(=O)N[C@@H](CO)C(=O)N[C@H](C(N)=O)[C@@H](C)OP(=O)(O)O [Peptide 3c] (Ac-PL[X3]S[pT]-NH2)
- IC50 [1]: 130 ± 9.8 nM

SMILES: CC(=O)N1CCC[C@H]1C(=O)N[C@@H](CC(C)C)C(=O)N[C@@H](Cc1cncn1CCCCc1cn(Cc2ccccc2)nn1)C(=O)N[C@@H](CO)C(=O)N[C@H](C(N)=O)[C@@H](C)OP(=O)(O)O [Peptide 3a] (Ac-PL[X2]S[pT]-NH2)
- relative loss of Plk1 PBD-binding affinity versus peptide 2a ([1]; FP): ~8 fold
- IC50 [1]: 110 ± 6.6 nM
